Assay results published in patent publication US9988430B2, “Stable GLP-1 based GLP-1/glucagon receptor co-agonists” (Novo Nordisk A/S, priority 2014, dated 2018).
*1 amine or outer side, *2 acyl side, *3 side chain or, on linkers, in order; H or OH if unused. Where a SMILES comes first, the peptide text is derived from it. Bridges are numbered along the chain shown (N, C = ends). Roman numbers before positions name the chains, in order. [ ]: non-standard residue; d: D form. The star is where a group is joined. C18 diacid = O=C(O)CCCCCCCCCCCCCCCCC(=O)*; γGlu = O=C(O)[C@H](CCC(=O)[*:2])N[*:1]; Desaminohistidyl = O=C(CCc1c[nH]cn1)*; Aib = CC(C)(N)C(=O)O

Target: T1, human glucagon receptor (Homo sapiens, UniProt P47871)
T1 construct: expressed in transfected cells; host or cells: membranes of BHK cells, clone BHK hGCGR A3*25
Experiment: Assay (I)(b): glucagon receptor potency, CRE luciferase reporter gene assay in BHK cells
Type: cell-based
Details: BHK cells expressing human glucagon receptor, read-out: EC50 GlucagonR
Procedure: Assay (I): GLP-1 and Glucagon Receptor Potency The purpose of this example was to test the activity or potency, of the GLP-1 derivatives of the invention, in vitro. The in vitro potency is the measure of human GLP-1 receptor (GLP-1R) or glucagon receptor (glucagonR) activation, respectively, in a whole cell assay. In vitro potency was determined by measuring the cellular response of human GLP-1 or glucagon receptor activation, respectively, in a reporter gene assay. The assay was performed in a BHK cell line that stably expresses either the human GLP-1 receptor or the human glucagon receptor and comprises the DNA for the cAMP response element (CRE) coupled to a promoter and the gene for firefly luciferase (CRE luciferase). […] When assay incubation was completed, the luciferase substrate (luciferin) was added and the enzyme converted luciferin to oxyluciferin and produces bioluminescence. The luminescence was measured as the readout for the assay. […] The cells were counted and adjusted to 5×10EE3 cells/50 μl (1×10EE5 cells/ml) in Assay Medium. […] Each assay plate was read in a Perkin Elmer TopCount NXT instrument. […] EC50 values were calculated by the software and reported in pM.

T1 sequence (P47871 26-477): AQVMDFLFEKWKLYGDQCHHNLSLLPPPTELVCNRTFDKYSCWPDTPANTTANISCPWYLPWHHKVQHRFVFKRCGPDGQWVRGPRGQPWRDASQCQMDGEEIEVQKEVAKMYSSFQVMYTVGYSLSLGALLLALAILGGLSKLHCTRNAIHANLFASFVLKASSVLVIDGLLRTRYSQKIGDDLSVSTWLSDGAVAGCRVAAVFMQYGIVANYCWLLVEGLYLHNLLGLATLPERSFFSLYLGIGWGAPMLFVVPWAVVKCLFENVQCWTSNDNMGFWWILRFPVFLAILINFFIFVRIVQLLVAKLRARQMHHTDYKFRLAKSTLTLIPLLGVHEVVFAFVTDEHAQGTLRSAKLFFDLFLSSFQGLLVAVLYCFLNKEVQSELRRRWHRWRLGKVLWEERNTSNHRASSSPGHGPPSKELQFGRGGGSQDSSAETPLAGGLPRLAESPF

## CC[C@H](C)[C@H](NC(=O)[C@H](Cc1ccccc1)NC(=O)[C@H](CCC(=O)O)NC(=O)[C@H](CCCNC(=N)N)NC(=O)[C@H](C)NC(=O)[C@H](C)NC(=O)[C@H](CCC(N)=O)NC(=O)CNC(=O)[C@H](CCC(=O)O)NC(=O)[C@H](CC(C)C)NC(=O)[C@H](Cc1ccc(O)cc1)NC(=O)[C@H](CCCNC(=N)N)NC(=O)[C@H](CO)NC(=O)[C@@H](NC(=O)[C@H](CC(=O)O)NC(=O)[C@H](CO)NC(=O)[C@@H](NC(=O)[C@H](Cc1ccccc1)NC(=O)[C@@H](NC(=O)CNC(=O)[C@H](Cc1c[nH]cn1)NC(=O)C(C)(C)NC(=O)CCc1c[nH]cn1)[C@@H](C)O)[C@@H](C)O)C(C)C)C(=O)N[C@@H](C)C(=O)N[C@@H](Cc1c[nH]c2ccccc12)C(=O)N[C@@H](CC(C)C)C(=O)N[C@@H](CC(C)C)C(=O)N[C@@H](CCCCNC(=O)CNC(=O)[C@H](CO)NC(=O)[C@H](CCC(=O)O)NC(=O)CNC(=O)[C@H](CO)NC(=O)CC[C@H](NC(=O)CC[C@H](NC(=O)CCCCCCCCCCCCCCCCC(=O)O)C(=O)O)C(=O)O)C(=O)N[C@H](C(N)=O)[C@@H](C)O [Example 8, N^ε34-[2-[[(2S)-2-[[(2S)-4-carboxy-2-[[2-[[(2S)-2-[[(4S)-4-carboxy-4-[[(4S)-4-carboxy-4-(17-carboxyheptadecanoylamino)butanoyl]amino]butanoyl]amino]-3-hydroxypropanoyl]amino]acetyl]amino]butanoyl]amino]-3-hydroxypropanoyl]amino]acetyl]-[Imp7,Aib8,His9,Arg18,Arg26,Leu33,Thr35]-GLP-1-(7-35)-peptide amide] (I: Desaminohistidyl-[Aib]HGTFTSDVSRYLEGQAAREFIAWLLKT-NH2 / II: {C18 diacid-γGlu-γGlu}-SGESG; amide I:27-II:C)
  EC50: 143 pM
